{
  "source": "patent US7879910B1",
  "about": "“Compositions and methods for promoting lush hair growth” (Jan Marini Skin Research, Inc., priority 2006, dated 2011)",
  "key": {"[1]": {"assay": "Estimated margin of safety for topical use", "conditions": "assuming absorbed daily dosage of 0.020 μg/kg/day; relative to no-observable-adverse-effect dose in long-term laboratory toxicity tests; conservatively estimated", "text": "When absorbed in the body, is also metabolized into [+]fluprostenol. Based on extensive studies comparing the chemical structures, ocular and dermal absorption, metabolism, potency at the biological target site, toxicological and pharmacological of PGF2α analogs and derivatives, such as bimatoprost and travoprost, the inventor believes that the compound of Formula I, in particular the 5-Heptenamide, has much more balanced and favorable profiles of safety and efficacy, especially for long term chronic application to the skin. […] Assuming an absorbed daily dosage of 0.020 μg/kg/day, due to tightness of the outmost keratinized skin layer (the stratum corneum) which causes percutaneous permeability of most drugs 100-1000 times less than through the conjunctiva (Urtti & Salminen (1993) Survey of Opthalmology 37:435-456) and the lower hydrolysis rate of the 5-Heptenamide than travoprost, the margin of safety for 5-Heptenamide is conservatively estimated to be about 71,000, which means normal use of the composition delivers a dose that is less than about one 71,000th the no-observable-adverse-effect dose in long-term laboratory toxicity tests.\nTraditionally, a margin of safety of 100 (10 for interspecies extrapolation, and 10 for […]) is considered adequate. […]"}, "[2]": {"assay": "Metabolic conversion to the acid form [+]fluprostenol once absorbed in the body", "format": "in vivo, mammal", "conditions": "assessed by comparison of PGF2α analogs", "text": "In particular, the 5-Heptenamide administered to a mammal can be metabolized to produce an acid form which is a single isomer of fluprostenol, [+]fluprostenol having the structure of\nSince the compound of Formula I is an amide derivative of a PGF2α analog, once absorbed, hydrolysis by enzymes in the body converts the amide back to the biologically active carboxylic acid. In particular, the 5-Heptenamide can be metabolized to [+]fluprostenol which then binds to the prostaglandin receptor with high affinity and has reduced side effects such as eye irritation and hyperemia (excess blood in vessels supplying the eye).\nWhen absorbed in the body, is also metabolized into [+]fluprostenol. Based on extensive studies comparing the chemical structures, ocular and dermal absorption, metabolism, potency at the biological target site, toxicological and pharmacological of PGF2α analogs and derivatives, such as bimatoprost and travoprost, the inventor believes that the compound of Formula I, in particular the 5-Heptenamide, has much more balanced and favorable profiles of safety and efficacy, especially for long term chronic application to the skin. […]"}},
  "data": [
    {"compound": "CCNC(=O)CCC/C=C\\C[C@@H]1[C@H](/C=C/[C@@H](O)COc2cccc(C(F)(F)F)c2)[C@H](O)C[C@@H]1O", "note": "(relative stereo) [5-Heptenamide, 5-Heptenamide, 7-(3,5-dihydroxy-2-(3-hydroxy-4-(3-(trifluoromethyl)phenoxy)-1-butenyl)cyclopentyl)-, N-ethyl, (1R-(1alpha(Z), 2beta(1E,3R*), 3alpha, 5alpha)]", "values": [
      {"measurement": "margin of safety", "setting": "[1]", "value": "about 71,000"},
      {"measurement": "conversion to [+]fluprostenol (acid form)", "setting": "[2]", "value": "not as quantitatively converted to the acid form"}
    ]},
    {"compound": "CC(C)OC(=O)CCC/C=C\\C[C@@H]1[C@@H](/C=C/[C@@H](O)COc2cccc(C(F)(F)F)c2)[C@H](O)C[C@@H]1O", "note": "[travoprost, Travoprost, reference compound]", "values": [
      {"measurement": "conversion to [+]fluprostenol (acid form)", "setting": "[2]", "value": "essentially completely converted"}
    ]}
  ]
}
